According to patent US11911719B2, “Devices and methods for the integrated filtration, drying, and mechanical processing of active pharmaceutical ingredients” (Massachusetts Institute of Technology, priority 2019, dated 2024):
Where a name gives a salt, the structure may show the parent alone.

What was measured:
[1] = Powder compressibility (FT4 Powder Rheometer); type: physicochemical
Method: (§1) The bulk density was measured using the conditioned bulk density test, performed before any other test in the FT4. Powder flow property was measured using the shear cell test. The compressibility of the powders under investigation was also measured. Bulk density is an important parameter for determining the amount of powder that can fit in space such as blender, hopper of a tablet press or a tablet die. The shear test yields various powder flow measurements including a flow coefficient. The flow function coefficient (FFC) is used as an indicator of the flowability of a powder and is defined as the ratio of the major principle stress to the unconfined yield strength. The FFC was obtained using a normal stress of 3 kPa. FFC values can be separated into different regimes: FFC<1, not flowing; 1<FFC<2, very cohesive; 2<FFC<4, cohesive; 4<FFC<10, easy flowing, and FFC>10, free-flowing. Powder compressibility was also measured. Compressibility is not a direct measurement of flowability; however a free-flowing powder usually has a low compressibility value. A compressibility value greater than 30% indicates poor powder flow.

[2] = Particle size by laser diffraction (Mastersizer 2000, Scirocco 2000 dry dispersion); type: physicochemical
Method: (§2) Particle size analysis by laser diffraction was conducted in a Malvern Mastersizer 2000 using a Scirocco 2000 dry dispersion unit.
Characterization and understanding of the particle and bulk properties of the API, the excipients, and blends were important in the development and manufacturing of pharmaceutical formulations and finished products. Size, shape, bulk density and flow properties of CIPRO, excipients (specifically fillers), and blends were characterized to assist in formulation development. The particle size of CIPRO and excipients were measured in the Scirocco 2000, dry powder dispersion unit of Mastersizer 2000 particle size analyzer (Malvern Instruments Ltd.). CIPRO or excipient was placed in the enclosed vibratory tray of Scirocco 2000. The Scirocco 2000 uses compressed air to transport and suspend the particles of the sample while they pass through the air cell. The vibratory tray of Scirocco 2000 was vibrated to feed the powder at the 50% feed rate setting. The powder was dispersed through the air cell at an air pressure of 2 bar. The Mastersizer 2000 reported volume-weighted particle sizes. The median size of fumed silica CAB-O-SIL® M-5P is about 14 nm.

[3] = Shear cell test, flow function coefficient (FT4 Powder Rheometer); type: physicochemical
Method: as §1

[4] = Karl Fischer analysis of lattice water; type: physicochemical; settings: KF analysis of oven dried samples
Method: as §2
Furthermore, no significant loss of crystallinity can be observed from the baseline. The lattice water content can be quantified from KF analysis of the off-line oven dried samples collected at different times during the process. […] As expected, the cake contains approximately 19 wt % water at the start of the drying process, coming from the residual wash solvent that contains 20 vol % water (24 wt %), but diluted by the solid API. […] This value is in accordance with the observations from XRPD analysis, with the monohydrate salt of ciprofloxacin HCl having a 4.7 wt % stoichiometric water content. As the drying step progresses, the total water concentration in the cake decreases while the lattice water is maintained constant. With the USP specifications giving a target water content between 4.7 and 6.7 wt %, the obtained drug substance started meeting the specifications after 50 min of drying. This time coincides with the point at which the cake dry matter content was near 100%.

[5] = after 140 min of drying, 50° C., 0.5 bar
[6] = processed CIPRO particles, Table 3, Hydrochloride Monohydrate
[7] = Table 2 materials, volume-weighted, dry dispersion 2 bar
[8] = processed CIPRO particles, Table 3

Molecule: Cl.O.O=C(O)c1cn(C2CC2)c2cc(N3CCNCC3)c(F)cc2c1=O [CIPRO (w/o US, Krups Grinder), Ciprofloxacin Hydrochloride Monohydrate]
- Compressibility [1, 6]: 52.6%
- Compressibility ([1]; processed CIPRO particles, Table 3, listed as CIPRO (w/o use of a Krups Grinder), Hydrochloride Monohydrate): 52.6%
- Particle size d10 [2, 6]: 1.23 μm
- Particle size d50 [2, 6]: 3.88 μm
- Particle size d90 [2, 6]: 33.26 μm

Molecule: Magnesium stearate
- Compressibility ([1]; Table 2 materials): 38.97%
- FFC (Flow function coefficient) ([3]; Table 2 materials, normal stress of 3 kPa): 5.18
- Flowability by Schulze classification ([3]; based on FFC): flows easily
- Particle size d10 [2, 7]: 2.76 μm
- Particle size d50 [2, 7]: 6.86 μm
- Particle size d90 [2, 7]: 15.10 μm

Molecule: O=C(O)c1cn(C2CC2)c2cc(N3CCNCC3)c(F)cc2c1=O [Ciprofloxacin HCl (CIPRO), Ciprofloxacin Hydrochloride Monohydrate]
- Lattice water content of the crystalline phase [4]: 6.2 wt %
- Crystal structure after drying (XRPD) [5]: retained the original crystal structure

Molecule: O=C(O)c1cn(C2CC2)c2cc(N3CCNCC3)c(F)cc2c1=O [CIPRO (Commercial, un-processed), Ciprofloxacin Hydrochloride Monohydrate]
- Compressibility [1, 8]: 38.9%
- Particle size d10 [2, 8]: 3.75 μm
- Particle size d50 [2, 8]: 12.49 μm
- Particle size d90 [2, 8]: 439.56 μm

Molecule: Cl.O.O=C(O)c1cn(C2CC2)c2cc(N3CCNCC3)c(F)cc2c1=O [CIPRO (US & Krups Grinder), Ciprofloxacin Hydrochloride Monohydrate]
- Compressibility [1, 6]: 38.8%
- Particle size d10 [2, 6]: 1.93 μm
- Particle size d50 [2, 6]: 7.09 μm
- Particle size d90 [2, 6]: 65.36 μm

Molecule: Cl.O.O=C(O)c1cn(C2CC2)c2cc(N3CCNCC3)c(F)cc2c1=O [CIPRO (US & Morter-Pastle), Ciprofloxacin Hydrochloride Monohydrate]
- Compressibility [1, 6]: 43.6%
- Particle size d10 [2, 6]: 3.01 μm
- Particle size d50 [2, 6]: 8.67 μm
- Particle size d90 [2, 6]: 24.02 μm

Molecule: Cl.O.O=C(O)c1cn(C2CC2)c2cc(N3CCNCC3)c(F)cc2c1=O [CIPRO (w/o US, Grinder designed at MIT), Ciprofloxacin Hydrochloride Monohydrate]
- Particle size d10 [2, 6]: 2.82 μm
- Particle size d50 [2, 6]: 14.45 μm
- Particle size d90 [2, 6]: 169.73 μm
